We go through eleven compounds from patent US20080207632A1, “PROTEIN KINASE INHIBITORS” (SUPERGEN, INC., priority 2006, published 2008).

Read-outs that look alike come from different tables or passages of the source. Bounds are passed on as bounds.

Format in all cases: cell-based
One assay deals with MCF-7 (breast). In words: in vitro cytotoxicity assay (Cell-Titer-Glo), MCF-7. The following applies: Homo sapiens. On the procedure:
(§1) To evaluate cell killing of cancer cell lines, an in vitro cytotoxicity assay was performed. The tumor cell lines used were purchased from the American Type Culture Collection, and are identified as follows: Panc-1 (pancreas), MiaPaCa-2 (pancreas), MCF-7 (breast), HT-29 (colon), U2-OS (osteosarcoma), OVCAR-3 (ovary), HepG2 (hepatocellular carcinoma) and TT (medullary thyroid). The assay utilized the Cell-Titer-Glo Non-Radioactive Cell Proliferation Assay (Promega Corp., Madison, Wis.). First the cells were cultured in RPMI 1640 medium (Cat# 21870-076, Invitrogen Corporation) supplemented with 300 mg/L L-glutamine, 100 units/ml penicillin, 100 μg/ml streptomycin and 10% fetal bovine serum. All the cell lines were incubated in a humidified incubator at 37° C. with 5% CO2 atmosphere.
(§2) Cells were plated at a density of 2000 to 10000 cells per well, depending on their growth rate, in 0.09 mL medium on day 0 in 96-well Microlite TCT microtiter plates (7418, Thermo Labsystems, Franklin, Mass.). On day 1, 10 μL of serial dilutions of the individual compounds were added to the plates in replicates of 3. After incubation for 4 days at 37° C. in a humidified incubator, the cells were lysed in the Cell-Titer-Glo reagent, which also contains luciferase enzyme. The luciferase reaction utilizes ATP released from lysed cells to produce light, the intensity of which is linearly related to the amount of ATP. Thus, the amount of light produced is a reflection of the number of cells remaining in the well after drug treatment. This luminescence was measured using a Luminoskan luminometer (Thermo Electron Corp., Vantaa, Finland) Data were expressed as the percentage of survival of control cells calculated from the luminescence corrected for background. The surviving percent of cells was determined by dividing the mean luminescence values of the treated wells by the mean luminescence values of the control and multiplying by 100.
as §1, with “Briefly,” for “To evaluate cell killing of cancer cell lines, an in vitro cytotoxicity assay was performed. The”, “thyroid), PC-3 (prostate) and A549 (lung).” for “thyroid).”
as §1, with “carcinoma), PC-3 (prostate),” for “carcinoma)”, “A549 (lung).” for “TT (medullary thyroid).”
(§3) Cells were plated at a density of 2000 to 10000 cells per well, depending on their growth rate, in 0.09 mL medium on day 0 in 96-well Microlite TCT microtiter plates (#7418, Thermo Labsystems, Franklin, Mass.). On day 1, 10 μL of serial dilutions of the individual compounds were added to the plates in replicates of 3. After incubation for 4 days at 37° C. in a humidified incubator, the cells were lysed in the Cell-Titer-Glo reagent, which also contains luciferase enzyme. […]

The test system of a further assay is MiaPaCa-2 (pancreas). As to the kind of experiment: in vitro cytotoxicity assay (Cell-Titer-Glo), MiaPaCa-2. As to conditions: Homo sapiens, MIA PaCa-2, 96 h, 4 days. On the procedure:
as §1, §2
as §1, with “Briefly,” for “To evaluate cell killing of cancer cell lines, an in vitro cytotoxicity assay was performed. The”, “thyroid), PC-3 (prostate) and A549 (lung).” for “thyroid).”
as §1, with “carcinoma), PC-3 (prostate),” for “carcinoma)”, “A549 (lung).” for “TT (medullary thyroid).”
as §3

Another assay relates to OVCAR-3 (ovary). In words: in vitro cytotoxicity assay (Cell-Titer-Glo), OVCAR-3. The following applies: Homo sapiens. The procedure:
as §1, §2
as §1, with “Briefly,” for “To evaluate cell killing of cancer cell lines, an in vitro cytotoxicity assay was performed. The”, “thyroid), PC-3 (prostate) and A549 (lung).” for “thyroid).”
as §1, with “carcinoma), PC-3 (prostate),” for “carcinoma)”, “A549 (lung).” for “TT (medullary thyroid).”
as §3

Assay [1] has as its system HepG2 (hepatocellular carcinoma). In words: in vitro cytotoxicity assay (Cell-Titer-Glo), HepG2. As to conditions: Homo sapiens, HepG2, 96 h, 4 days. The procedure: as §1, §2
as §1, with “Briefly,” for “To evaluate cell killing of cancer cell lines, an in vitro cytotoxicity assay was performed. The”, “thyroid), PC-3 (prostate) and A549 (lung).” for “thyroid).”
as §1, with “carcinoma), PC-3 (prostate),” for “carcinoma)”, “A549 (lung).” for “TT (medullary thyroid).”
as §3

A further assay concerns A549 (lung). As to the kind of experiment: in vitro cytotoxicity assay (Cell-Titer-Glo), A549. The following applies: Homo sapiens. On the procedure:
as §1, with “Briefly,” for “To evaluate cell killing of cancer cell lines, an in vitro cytotoxicity assay was performed. The”, “thyroid), PC-3 (prostate) and A549 (lung).” for “thyroid).”
as §2
as §1, with “carcinoma), PC-3 (prostate),” for “carcinoma)”, “A549 (lung).” for “TT (medullary thyroid).”
as §2, with “(#7418,” for “(7418,”, “100. […]” for “100.”

In another assay the test system is PC-3 (prostate). In words: in vitro cytotoxicity assay (Cell-Titer-Glo), PC-3. On the procedure: as §1, with “Briefly,” for “To evaluate cell killing of cancer cell lines, an in vitro cytotoxicity assay was performed. The”, “thyroid), PC-3 (prostate) and A549 (lung).” for “thyroid).”
as §2
as §1, with “carcinoma), PC-3 (prostate),” for “carcinoma)”, “A549 (lung).” for “TT (medullary thyroid).”
as §2, with “(#7418,” for “(7418,”, “100. […]” for “100.”

The mark [2] stands for this setting: MCF7, 96 h, Example 20, 4 days, read-out: Cell-based IC50 values MCF-7.
Where [3] appears, read: Example 20, read-out: Cell-based IC50 values MiaPaCa-2.
[4] abbreviates: OVCAR-3, 96 h, Example 20, 4 days, read-out: Cell-based IC50 values OVCAR-3.
Where [5] appears, read: Example 20, read-out: Cell-based IC50 values HepG2.
Where [6] appears, read: A549, 96 h, Example 20, 4 days, read-out: Cell-based IC50 values A549.
Setting [7] is: 96 h, Example 20, 4 days, read-out: Cell-based IC50 values PC-3.

In general, IC50 refers to the concentration that inhibits the measured activity by half. On to `CC(=O)NS(=O)(=O)c1ccc(NC(=S)N2CCN(c3ncnc4[nH]c5cc(C(F)(F)F)c(Cl)cc5c34)CC2)cc1` [Compound 1-1, 4-(6-Chloro-7-trifluoromethyl-9H-pyrimido[4,5-b]indol-4-yl)-piperazine-1-carbothioic acid (4-acetylsulfamoyl-phenyl)-amide], for which the IC50 in the assay with MCF-7 (breast) (MCF7, 96 h, Example 18, 4 days, read-out: calculated IC50 MCF-7) was 22.5 µM; with MCF-7 (breast) (setting [2]), 14.6 µM; with MCF-7 (breast) (MCF7, Table 10, 96 hours, read-out: IC50 MCF-7 (inhibit cell growth to 50% of untreated)), 22.5 µM; in the assay with MiaPaCa-2 (pancreas) (Example 18, read-out: calculated IC50 MiaPaCa-2), 66.6 µM; in the assay with MiaPaCa-2 (pancreas) (setting [3]), 18.6 µM; with OVCAR-3 (ovary) (OVCAR-3, 96 h, Example 18, 4 days, read-out: calculated IC50 OVCAR-3), 25 µM. Also, the IC50 was 13.1 µM with OVCAR-3 (ovary) (setting [4]); 25 µM in the assay on OVCAR-3 (ovary) (OVCAR-3, Table 10, 96 hours, read-out: IC50 OVCAR-3 (inhibit cell growth to 50% of untreated)); 7.83 µM in assay [1] (Example 18, read-out: calculated IC50 HepG2); 26 µM in assay [1] (setting [5]); 53.8 µM in the assay with A549 (lung) (setting [6]); 19 µM in the assay with A549 (lung) (A549, Table 10, 96 hours, read-out: IC50 A549 (inhibit cell growth to 50% of untreated)). For the same compound, the IC50 with PC-3 (prostate) (setting [7]) is 52.3 µM; with PC-3 (prostate) (Table 10, 96 hours, read-out: IC50 PC-3 (inhibit cell growth to 50% of untreated)) it was 28.4 µM.

With `COc1cc2[nH]c3ncnc(N4CCN(C(=S)Nc5ccc(S(=O)(=O)NC(C)=O)cc5)CC4)c3c2cc1OC` [Compound 1-2, 4-(6,7-Dimethoxy-9H-pyrimido[4,5-b]indol-4-yl)-piperazine-1-carbothioic acid (4-acetylsulfamoyl-phenyl)-amide], the 50% inhibitory concentration (IC50) in the assay with MCF-7 (breast) (setting [2]) is 126 µM; in the assay on MiaPaCa-2 (pancreas) (setting [3]), 173 µM; with OVCAR-3 (ovary) (setting [4]), 29.4 µM; in assay [1] (setting [5]), 295 µM; in the assay on A549 (lung) (setting [6]) it was 194 µM; in the assay with PC-3 (prostate) (setting [7]) it was 164 µM.

With `CC(=O)NS(=O)(=O)c1ccc(NC(=S)N2CCN(c3ncnc4[nH]c5ccc(Cl)cc5c34)CC2)cc1` [Compound 1-3, 4-(6-chloro-9H-pyrimido[4,5-b]indol-4-yl)-piperazine-1-carbothioic acid (4-acetylsulfamoyl-phenyl)-amide], the IC50 in the assay with MCF-7 (breast) (setting [2]) amounted to 209 µM; with MiaPaCa-2 (pancreas) (setting [3]), 22.1 µM; in the assay on OVCAR-3 (ovary) (setting [4]), 48 µM; in assay [1] (setting [5]), 49.6 µM; with A549 (lung) (setting [6]), 37 µM; in the assay on PC-3 (prostate) (setting [7]), 47.3 µM.

For the compound `CC(=O)NS(=O)(=O)c1ccc(NC(=S)N2CCN(c3ncnc4[nH]c5cc(F)ccc5c34)CC2)cc1` [Compound 1-4], the IC50 turned out to be 249 µM in the assay on MCF-7 (breast) (setting [2]); 85.2 µM with MiaPaCa-2 (pancreas) (setting [3]); 79 µM in the assay with OVCAR-3 (ovary) (setting [4]); 88 µM in assay [1] (setting [5]); 72.7 µM in the assay with A549 (lung) (setting [6]); 160 µM in the assay on PC-3 (prostate) (setting [7]).

With `COc1cc2c(cc1O)[nH]c1ncnc(N3CCN(C(=S)Nc4ccc(S(=O)(=O)NC(C)=O)cc4)CC3)c12` [Compound 1-8], the IC50 in the assay with MCF-7 (breast) (setting [2]) was determined as 83.1 µM; in the assay with OVCAR-3 (ovary) (setting [4]), 82.4 µM; in assay [1] (setting [5]), 81.8 µM.

For `COc1cc2[nH]c3ncnc(N4CCN(C(=S)Nc5ccc(S(=O)(=O)N6CCOCC6)cc5)CC4)c3c2cc1OC` [Compound 1-26], the IC50 came out at 14.7 µM in the assay on MCF-7 (breast) (setting [2]); 8.92 µM with MiaPaCa-2 (pancreas) (setting [3]); 156 µM in the assay with OVCAR-3 (ovary) (setting [4]); 4.38 µM in assay [1] (setting [5]); 130 µM with A549 (lung) (setting [6]); 22.3 µM with PC-3 (prostate) (setting [7]).

For `COc1cc2[nH]c3ncnc(N4CCN(C(=S)Nc5ccc(NC(=O)C6CC6)cc5)CC4)c3c2cc1OC` [Compound 1-34], the IC50 was determined as 76.9 µM with MCF-7 (breast) (setting [2]); 9.82 µM with MiaPaCa-2 (pancreas) (setting [3]); 111 µM in the assay on OVCAR-3 (ovary) (setting [4]); 81.9 µM in assay [1] (setting [5]); 186 µM in the assay on A549 (lung) (setting [6]); 21.9 µM in the assay on PC-3 (prostate) (setting [7]).

Take `COc1cc2[nH]c3ncnc(N4CCN(C(=S)Nc5ccc(NC(C)=O)cc5)CC4)c3c2cc1OC` [Compound 1-42]: the half-inhibitory concentration (IC50) with MCF-7 (breast) (setting [2]) was 4.62 µM; with MiaPaCa-2 (pancreas) (setting [3]), 182 µM; with OVCAR-3 (ovary) (setting [4]) it was 85.1 µM; in assay [1] (setting [5]), 98.5 µM; in the assay on A549 (lung) (setting [6]), 160 µM; with PC-3 (prostate) (setting [7]) it was 189 µM.

As to `COc1cc2[nH]c3ncnc(N4CCN(C(=S)Nc5ccc(S(N)(=O)=O)cc5)CC4)c3c2cc1OC` [Compound 1-107], the IC50 was over 300 µM with MCF-7 (breast) (setting [2]); 107 µM with MiaPaCa-2 (pancreas) (setting [3]); 176 µM in the assay on OVCAR-3 (ovary) (setting [4]); 173 µM in assay [1] (setting [5]); 51.5 µM in the assay with A549 (lung) (setting [6]); 2.33 µM in the assay on PC-3 (prostate) (setting [7]).

Regarding `COc1cc2[nH]c3ncnc(N4CCN(C(=S)Nc5ccc(S(C)(=O)=O)cc5)CC4)c3c2cc1OC` [Compound 1-115], the IC50 was 87.8 µM in the assay on MCF-7 (breast) (setting [2]); 55.4 µM in the assay on MiaPaCa-2 (pancreas) (setting [3]); 175 µM with OVCAR-3 (ovary) (setting [4]); 57.9 µM in assay [1] (setting [5]); 149 µM in the assay with A549 (lung) (setting [6]); 75.7 µM in the assay on PC-3 (prostate) (setting [7]).

Consider `COc1cc2[nH]c3ncnc(N4CCN(C(=S)Nc5ccc(S(=O)(=O)Nc6ccc(F)cc6)cc5)CC4)c3c2cc1OC` [Compound 2-3, 4-(6,7-dimethoxy-9H-pyrimido[4,5-b]indol-4-yl)-N-(4-(N-(4-fluorophenyl)sulfamoyl)phenyl)piperazine-1-carbothioamide], for which the IC50 turned out to be 8.43 µM in the assay with MCF-7 (breast) (MCF7, 96 h, Table 9, 4 days, read-out: IC50 MCF-7); 7.19 µM in the assay on MiaPaCa-2 (pancreas) (Table 9, read-out: IC50 MiaPaCa-2); 9.14 µM in the assay with OVCAR-3 (ovary) (OVCAR-3, 96 h, Table 9, 4 days, read-out: IC50 OVCAR-3); 9.02 µM in assay [1] (Table 9, read-out: IC50 HepG2); 23 µM in the assay with A549 (lung) (A549, 96 h, Table 9, 4 days, read-out: IC50 A549); 8.78 µM in the assay on PC-3 (prostate) (96 h, Table 9, 4 days, read-out: IC50 PC-3).
